Reference: US12456543B2, “Enzymes” (UNIVERSITY COURT OF THE UNIVERSITY OF ST ANDREWS, priority 2018, dated 2025)

Columns and labels:
[1] = Halogenase activity of Dsg205 and Dsg701 against 600 member compound library, LC-MSMS assay; type: biochemical; conditions: substrate of Dsg205/Dsg701, enzyme not specified
[2] = tested on: Dsg407; assay: Substrates accepted by Dsg407; conditions: purified Dsg407, NaBr or NaI, pH 7.2
[3] = tested on: tryptophan 5-halogenase PyrH; conditions: natural substrate tryptophan; based on product production; cited from earlier work
[4] = tested on: tryptophan 7-halogenase RebH; conditions: natural substrate tryptophan; based on product production; cited from earlier work

| SMILES | accepted as substrate by Dsg407 [2] | also measured |
| --- | --- | --- |
| Nc1cccc2cccnc12 [8-quinolamine] | – | conversion of substrate, estimated [1]: ~75% |
| N[C@H](Cc1c[nH]c2ccccc12)C(=O)O [D-tryptophan] | accepts | – |
| c1cc2cc[nH]c2cn1 [Dsg 6-azaindole, 6-azaindole] | also a substrate of Dsg407 | – |
| N[C@@H](Cc1c[nH]c2ccccc12)C(=O)O [L-tryptophan] | not | – |
| N[C@@H](Cc1c[nH]c2ccccc12)C(=O)O [tryptophan] | – | Kcat [3]: 0.0417 ± 0.0067 s⁻¹; Km [4]: 18.7 ± 1.3 µM |
